Data published in ChEMBL document CHEMBL1145454, “Endiandrin A, a potent glucocorticoid receptor binder isolated from the Australian plant Endiandra anthropophagorum” (J Nat Prod, 2007).
pIC50: −log10 of the molar value.

target: T1, Glucocorticoid receptor (Homo sapiens, UniProt P04150); assay: Binding affinity to glucocorticoid receptor by GR binding assay
T1 sequence (P04150 whole entry): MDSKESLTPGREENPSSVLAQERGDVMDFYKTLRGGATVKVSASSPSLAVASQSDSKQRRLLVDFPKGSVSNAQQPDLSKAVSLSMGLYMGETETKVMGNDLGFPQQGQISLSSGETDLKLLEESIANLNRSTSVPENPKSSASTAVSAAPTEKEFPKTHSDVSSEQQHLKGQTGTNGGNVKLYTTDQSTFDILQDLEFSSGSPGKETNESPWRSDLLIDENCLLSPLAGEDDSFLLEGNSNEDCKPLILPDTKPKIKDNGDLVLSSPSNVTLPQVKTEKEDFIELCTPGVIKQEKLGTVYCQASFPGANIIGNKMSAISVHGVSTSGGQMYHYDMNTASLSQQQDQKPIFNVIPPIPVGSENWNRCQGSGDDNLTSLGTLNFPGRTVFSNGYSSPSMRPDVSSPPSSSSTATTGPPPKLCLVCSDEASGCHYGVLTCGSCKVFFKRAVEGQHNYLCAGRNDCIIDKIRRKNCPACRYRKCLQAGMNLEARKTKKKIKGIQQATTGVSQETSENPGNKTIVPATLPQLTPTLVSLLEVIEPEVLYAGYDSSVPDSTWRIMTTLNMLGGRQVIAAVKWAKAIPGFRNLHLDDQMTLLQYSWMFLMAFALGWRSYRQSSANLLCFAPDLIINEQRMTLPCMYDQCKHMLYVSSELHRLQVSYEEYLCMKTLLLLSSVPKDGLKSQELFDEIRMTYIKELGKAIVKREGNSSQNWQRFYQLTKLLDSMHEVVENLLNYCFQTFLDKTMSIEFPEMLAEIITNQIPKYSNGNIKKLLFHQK

SMILES | pIC50
COc1cc(C[C@@H](C)[C@H](C)Cc2ccc(O)c(OC)c2)ccc1O [(-)-DIHYDROGUAIARETICACID] | 4.46
COc1cc([C@@H]2[C@@H](C)[C@H](C)[C@H]2c2ccc(O)c(OC)c2)ccc1O [ENDIANDRIN A] | 6.05

The next lines start with the values.

pIC50 | SMILES
4.47 | COc1cc([C@@H]2[C@@H](C)[C@H](C)[C@H]2c2ccc(OC(C)=O)c(OC)c2)ccc1OC(C)=O [DI-O-ACETYLENDIANDRIN A]
4.89 | COc1ccc([C@@H]2[C@@H](C)[C@H](C)[C@H]2c2ccc(OC)c(OC)c2)cc1OC [DI-O-METHYLENDIANDRIN A]
4.57 | COc1cc([C@H]2O[C@@H](c3ccc(O)c(OC)c3)[C@H](C)[C@@H]2C)ccc1O [NECTANDRIN B]
